Experiments:
[1] = ORP (oxidation-reduction potential) of mixtures versus sodium hypochlorite solution of the same concentration; type: physicochemical; details: for ORP: Only solution
[2] = tested on: overall viable bacteria count; experiment: Bactericidal effect on green onions, overall viable bacteria count; type: cell-based; details: green onion, immersion 30 minutes
[3] = tested on: E. coli group; experiment: Bactericidal effect on green onions, E. coli group count; type: cell-based; details: green onion, immersion 30 minutes

ORP ([1]; 200 ppm): 554 mV | ORP ([1]; 1000 ppm): 560 mV | ORP ([1]; Undiluted solution (6%)): 560 mV | ORP (oxidation-reduction potential) / oxidizing power upon dilution ([1]; diluted): no change
Structure (SMILES): OCl [sodium hypochlorite]
Overall viable bacteria count ([2]; 200 ppm, D + 0): 5.00 log CFU | Overall viable bacteria count ([2]; 200 ppm, D + 1): 5.72 log CFU | Overall viable bacteria count ([2]; 1000 ppm, D + 0): 3.57 log CFU | Overall viable bacteria count ([2]; 1000 ppm, D + 1): 5.61 log CFU | E. coli group count ([3]; 200 ppm, D + 3): 5.66 log CFU | E. coli group count ([3]; 1000 ppm, D + 2): 2.64 log CFU | E. coli group count ([3]; 1000 ppm, D + 3): 4.73 log CFU

— patent US20250033966A1, “MANUFACTURING METHOD FOR OBTAINING NOVEL CHLORINE OXIDE COMPOSITION FROM DEGRADED HYPOCHLORITE” (HONBUSANKEI CO., LTD., priority 2018, published 2025)
